{"source": "patent US20250042885A1", "about": "“SOLID STATE FORMS OF LOTILANER AND PROCESS FOR PREPARATION THEREOF” (TEVA PHARMACEUTICALS INTERNATIONAL GMBH, priority 2021, published 2025)", "format_in_all_cases": "physicochemical", "key": {"[1]": {"experiment": "Storage stability at different relative humidities (XRPD)", "details": "for at least 7 days; conclusion from Table 1", "protocol": "(§1) Prior to analysis, the samples were gently ground by means of mortar and pestle in order to obtain a fine powder. The ground sample was adjusted into a cavity of the sample holder and the surface of the sample was smoothed by means of a cover glass.\n(§2) • Scan range: 2-40 degrees 2-theta; • Scan mode: continuous; • Step size: 0.05 degrees; • Time per step: 0.5 s; • Sample spin: 30 rpm; • Sample holder: PMMA specimen holder ring with silicon low background holder.\nSamples of Lotilaner forms were subjected to conditions of different relative humidities at ambient temperature. XRPD analysis was performed on the samples after 7 days."}, "[2]": {"experiment": "Storage stability at different temperatures and/or relative humidities (XRPD)", "protocol": "as §1, §2\nSamples of Lotilaner forms were subjected to conditions of different temperatures and/or relative humidities. XRPD analysis was performed on the samples after 1, 3 or 6 months."}, "[3]": {"experiment": "Grinding experiments (strong grinding, solvent drop grinding; XRPD)", "protocol": "(§3) X-ray diffraction was performed on X-Ray powder diffractometer Bruker D8 Advance; CuK_radiation (λ=1.5418 Å); Lynx eye detector; laboratory temperature 22-25° C.; PMMA specimen holder ring. Prior to analysis, the samples were gently ground by means of mortar and pestle in order to obtain a fine powder. The ground sample was adjusted into a cavity of the sample holder and the surface of the sample was smoothed by means of a cover glass.\nas §2\nSamples of Lotilaner forms were subjected to strong grinding, and to solvent drop grinding in water, ethanol or isopropanol. Grinding was carried out on the samples alone, or in the presence of ethanol, water or isopropanol. In these experiments, about 20 mg of the sample is placed in a mortar and ground with a pestle for 2 minutes. The solvent, when used, as added to the crystalline material before grinding, in a volume of 10 microlitres. XRPD analysis performed on each of the samples after the grinding experiment, confirmed no change in the starting material (Table 3): […]"}, "[4]": {"experiment": "Thermal stability (heating, XRPD)", "protocol": "as §3, §2\nSamples of Lotilaner forms were subjected to heating up to 100° C. for 30 minutes. XRPD analysis of the sample confirmed no change in the starting material (Table 4): […]"}, "[5]": {"experiment": "Stability to compression (XRPD)", "protocol": "as §1, §2\nSamples of Lotilaner forms were subjected to pressures of 2 tons for one minute. XRPD analysis was performed on the samples after 1 minute."}}, "data": [{"smiles": "Cc1cc(C2=NO[C@@](c3cc(Cl)c(Cl)c(Cl)c3)(C(F)(F)F)C2)sc1C(=O)NCC(=O)NCC(F)(F)F", "note": "[Form LT1 Lotilaner, 3-Methyl-N-[2-oxo-2-(2,2,2-trifluoroethylamino)ethyl]-5-[(5S)-5-(3,4,5-trichlorophenyl)-5-(trifluoromethyl)-4H-1,2-oxazol-3-yl]thiophene-2-carboxamide]", "values": [{"measurement": "Stability after exposure to high and low relative humidity", "setting": "[1]", "value": "stable"}, {"measurement": "XRPD analysis after storage, 2-8° C.", "setting": "[2]; 6 months (6 m)", "value": "No change"}, {"measurement": "XRPD analysis after storage, 25° C., 60% RH", "setting": "[2]; 6 months (6 m)", "value": "No change"}, {"measurement": "XRPD analysis after storage, 40° C., 75% RH", "setting": "[2]; 6 months (6 m)", "value": "No change"}, {"measurement": "Storage stability", "setting": "[2]; conclusion from Table 2", "value": "good storage stability"}, {"measurement": "XRPD analysis after strong grinding", "setting": "[3]; about 20 mg ground in mortar with pestle for 2 minutes, no solvent", "value": "No change"}, {"measurement": "Resistance to polymorphic changes on grinding", "setting": "[3]; conclusion from Table 3", "value": "resistant to polymorphic changes"}, {"measurement": "XRPD analysis after solvent-drop grinding (ethanol)", "setting": "[3]; ground 2 minutes, 10 microlitres ethanol", "value": "No change"}, {"measurement": "XRPD analysis after solvent-drop grinding (isopropanol)", "setting": "[3]; ground 2 minutes, 10 microlitres isopropanol", "value": "No change"}, {"measurement": "XRPD analysis after solvent-drop grinding (water)", "setting": "[3]; ground 2 minutes, 10 microlitres water", "value": "No change"}, {"measurement": "XRPD analysis after heating 100° C., 30 minutes", "setting": "[4]", "value": "No change"}, {"measurement": "XRPD analysis results, pressure (2 tons)", "setting": "[5]; 2 tons for one minute", "value": "No change"}, {"measurement": "Stability under high pressure conditions", "setting": "[5]; conclusion from Table 5", "value": "stable"}]}, {"smiles": "Cc1cc(C2=NO[C@@](c3cc(Cl)c(Cl)c(Cl)c3)(C(F)(F)F)C2)sc1C(=O)NCC(=O)NCC(F)(F)F", "note": "[Form LT4 Lotilaner, 3-Methyl-N-[2-oxo-2-(2,2,2-trifluoroethylamino)ethyl]-5-[(5S)-5-(3,4,5-trichlorophenyl)-5-(trifluoromethyl)-4H-1,2-oxazol-3-yl]thiophene-2-carboxamide]", "values": [{"measurement": "XRPD analysis after storage, 2-8° C.", "setting": "[2]; 3 months (3 m)", "value": "No change"}, {"measurement": "XRPD analysis after storage, 25° C., 60% RH", "setting": "[2]; 3 months (3 m)", "value": "No change"}, {"measurement": "XRPD analysis after storage, 40° C., 75% RH", "setting": "[2]; 3 months (3 m)", "value": "No change"}]}, {"smiles": "Cc1cc(C2=NO[C@@](c3cc(Cl)c(Cl)c(Cl)c3)(C(F)(F)F)C2)sc1C(=O)NCC(=O)NCC(F)(F)F", "note": "[Form LT5 Lotilaner, 3-Methyl-N-[2-oxo-2-(2,2,2-trifluoroethylamino)ethyl]-5-[(5S)-5-(3,4,5-trichlorophenyl)-5-(trifluoromethyl)-4H-1,2-oxazol-3-yl]thiophene-2-carboxamide]", "values": [{"measurement": "XRPD analysis after storage, 2-8° C.", "setting": "[2]; 1 month (1 m)", "value": "No change"}, {"measurement": "XRPD analysis after storage, 25° C., 60% RH", "setting": "[2]; 1 month (1 m)", "value": "No change"}, {"measurement": "XRPD analysis after storage, 40° C., 75% RH", "setting": "[2]; 1 month (1 m)", "value": "No change"}]}]}
